Source: BindingDB's records for doi:10.1016/j.bmcl.2009.01.098 (Glaxosmithkline, 2009)

Biological target: Muscarinic acetylcholine receptor M3 (Homo sapiens, UniProt P20309)
Experiment: Antagonist activity at human recombinant muscarinic M3 receptor expressed in CHO cells assessed as inhibition of acetylcholine-induced calcium mobilization by FLIPR based single concentration kinetic assay

Chain of Muscarinic acetylcholine receptor M3 (P20309 whole entry): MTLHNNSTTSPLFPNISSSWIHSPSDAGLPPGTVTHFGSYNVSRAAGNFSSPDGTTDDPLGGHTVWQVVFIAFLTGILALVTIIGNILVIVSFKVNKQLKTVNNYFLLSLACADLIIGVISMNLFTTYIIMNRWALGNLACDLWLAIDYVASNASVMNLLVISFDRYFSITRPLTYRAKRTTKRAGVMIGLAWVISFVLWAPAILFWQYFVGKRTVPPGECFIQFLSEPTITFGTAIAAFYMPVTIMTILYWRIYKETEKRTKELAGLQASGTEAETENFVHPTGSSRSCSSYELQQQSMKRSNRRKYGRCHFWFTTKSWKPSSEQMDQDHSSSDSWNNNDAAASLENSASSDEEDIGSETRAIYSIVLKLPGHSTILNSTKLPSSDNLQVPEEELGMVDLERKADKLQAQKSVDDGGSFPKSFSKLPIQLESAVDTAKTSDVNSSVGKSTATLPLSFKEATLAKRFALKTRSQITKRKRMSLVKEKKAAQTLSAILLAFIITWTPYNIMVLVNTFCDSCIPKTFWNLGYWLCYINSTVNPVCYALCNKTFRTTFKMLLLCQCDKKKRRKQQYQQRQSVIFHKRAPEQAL

SMILES | Kd
CC1CN(Cc2cccc(-c3cc(CNC(=O)c4cccc(CN5CCN(CCCO)CC5)c4)ccc3F)c2)CCN1 (stereo not drawn) | 0.0631 nM
CC1CN(Cc2cccc(-c3cc(CNC(=O)c4cccc(CN5CCCN(C)CC5)c4)ccc3F)c2)CCN1 (stereo not drawn) | 0.251 nM
CC1CN(Cc2cccc(-c3cc(CNC(=O)c4cccc(CN5CCN(C=O)CC5)c4)ccc3F)c2)CCN1 (stereo not drawn) | 0.0794 nM
CC1CN(Cc2cccc(-c3cc(CNC(=O)c4cccc(CN5CCOCC5)c4)ccc3F)c2)CCN1 (stereo not drawn) | 0.126 nM
CC1CN(Cc2cccc(-c3cc(CNC(=O)c4cccc(CN5CCCCC5)c4)ccc3F)c2)CCN1 (stereo not drawn) | 0.631 nM

The remaining lines, values ahead:

Kd | SMILES
0.0316 nM | CC1CN(Cc2cccc(-c3cc(CNC(=O)c4cccc(CN5CCN(C)CC5)c4)ccc3F)c2)CCN1 (stereo not drawn)
0.2 nM | CC1CN(Cc2cccc(-c3cc(CNC(=O)c4cccc(CN(C)CCCN(C)C)c4)ccc3F)c2)CCN1 (stereo not drawn)
3.16 nM | CC1CN(Cc2cccc(-c3cc(CNC(=O)c4cccc(CN(C)C)c4)ccc3F)c2)CCN1 (stereo not drawn)
